Measurements as given in US20210317102A1, “INHIBITORS OF INTEGRATED STRESS RESPONSE PATHWAY” (Praxis Biotech LLC, priority 2019, published 2021).
pIC50: −log10 of the molar value.

How the values were obtained:
[1] = system: ATF4 expression, HEK293T cells carrying the ATF4 luciferase reporter; experiment: ATF4 expression inhibition assay (ATF4 luciferase reporter); format: cell-based; conditions: Homo sapiens, HEK-293T, 100 nM thapsigargin, 3 hours
Method in brief: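 Stable HEK293T line expressing firefly luciferase behind the human full-length ATF4 5′UTR; cells stressed with 100 nM thapsigargin alongside compound (1 nM–10 μM) for 3 h at 37 °C. Luminescence normalized to Tg alone (0% inhibition) and untreated cells (100% inhibition) to give % ATF4 inhibition.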

[2] = system: Chinese hamster ovary (CHO) cells; experiment: Protein synthesis assay (puromycin incorporation, western blot); format: cell-based; conditions: Cricetulus griseus; unstressed CHO cells (without Tg), 1 μM test compound, 2 hours; media alone = 100%; read-out: % Protein synthesis relative to untreated (1 μM test compound)
Method in brief: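 CHO cells treated 2 h with 1 μM compound alone, or with 300 nM thapsigargin plus 1 μM compound, then pulsed 30 min with 10 μg/ml puromycin. Puromycin incorporation read by anti-puromycin western blot with densitometry. Unstressed values normalized to media alone (100%); stressed recovery normalized to media alone (100%) and Tg alone (0%).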

SMILES: O=C(COc1ccc(Cl)c(F)c1)N[C@H]1CC[C@H](CNC(=O)c2ccc3cc(Cl)ccc3n2)CC1 [Compound 10, trans-6-chloro-N-((4-(2-(4-chloro-3-fluorophenoxy)acetamido)cyclohexyl)methyl)quinoline-2-carboxamide]
- pIC50 [1]: 6.97
- activity at 1 µM [2]: 229%
